Results reported in patent publication US11098055B2, “Ester ACC inhibitors and uses thereof” (Gilead Apollo, LLC, priority 2015, dated 2021).
≈ marks a conversion by molar mass, not a printed value. Where two headings read alike, the source gives them in different places.

Columns and labels:
Septoria tritici (St) = assay: Growth inhibition assay of fungal pathogens; format: cell-based; settings: Zymoseptoria tritici, 48 h, read-out: Concentration at 90% Inhibition St
Procedure, shortened: (§1)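 Spore suspension in 17% V8 broth; cpd final 50/10/2 or 2/0.4/0.08 ppm, 2% DMSO. OD600 at 24 + 48 h, media blank subtracted, plus visual scoring. % inhibition at 48 h vs DMSO control.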

Rhizoctonia solani (Rs) = assay: Growth inhibition assay of fungal pathogens; format: cell-based; settings: 48 h, read-out: Concentration at 90% Inhibition Rs
Procedure, shortened: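 Spores, or mycelial plugs for Rhizoctonia, in 17% V8 medium (¼ PDB for plugs) were exposed to compound at final 50, 10 and 2 ppm or 2, 0.4 and 0.08 ppm, with 2% DMSO. Growth was read by OD600 with blank subtraction plus visual rating; percent inhibition at 48 h is relative to 2% DMSO control.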

[1] = test system: Fusarium virguliforme (Fv); assay: Growth inhibition assay of fungal pathogens; format: cell-based; settings: 48 h, read-out: Concentration at 90% Inhibition Fv
Procedure, shortened: as §1

Diplodia maydis (Dm) = assay: Growth inhibition assay of fungal pathogens; format: cell-based; settings: Stenocarpella maydis, 48 h, read-out: Concentration at 90% Inhibition Dm
Procedure, shortened: as §1

[2] = test system: Phytophthora capsici (Pc); assay: Growth inhibition assay of fungal pathogens; format: cell-based; settings: 48 h, read-out: Concentration at 90% Inhibition Pc
Procedure, shortened: as §1

[3] = test system: Fusarium moniliforme (Fm); assay: Growth inhibition assay of fungal pathogens; format: cell-based; settings: Fusarium verticillioides, 48 h, read-out: Concentration at 90% Inhibition Fm
Procedure, shortened: as §1

[4] = test system: Collectotrichum graminicola (Cg); assay: Growth inhibition assay of fungal pathogens; format: cell-based; settings: 48 h, read-out: Concentration at 90% Inhibition Cg
Procedure, shortened: as §1

hACC2 = hACC2 (Homo sapiens, UniProt O00763); assay: In vitro ACC2 inhibition assay (ADP-Glo), human ACC2; format: biochemical
Method: An exemplary procedure for the in vitro ACC inhibition assay, which can be used to determine the inhibitory action of compounds of the invention toward either human (hACC2) or fungal (fACC2) ACC2, follows. The ADP-Glo™ Kinase Assay kit from Promega was used. The ADP-Glo™ Kinase Assay is a luminescent ADP detection assay to measure enzymatic activity by quantifying the amount of ADP produced during an enzyme reaction. The assay is performed in two steps; first, after the enzyme reaction, an equal volume of ADP-Glo™ Reagent is added to terminate the reaction and deplete the remaining ATP. Second, the Kinase Detection Reagent is added to simultaneously convert ADP to ATP and allow the newly synthesized ATP to be measured using a luciferase/luciferin reaction. Luminescence can be correlated to ADP concentrations by using an ATP-to-ADP conversion curve. The detailed procedure is as follows. 50 μL of the compound being tested (600 μM in DMSO) was added to a 384-well dilution plate. The compound was diluted 1:3 in succession in DMSO for each row for 11 wells. 0.5 μL ACC2 working solution was added to 384-well white Optiplate assay plate. 0.5 μL diluted compound solution in each column from step 2 was added to assay plate, each row containing 2 replicates. For the last 2 rows, 0.5 μL negative control (DMSO) was added in one row and 0.5 μL positive control (compound I-97) in the other. The plates were incubated at room temperature for 15 minutes. 5 μL substrate working solution was added to each well to initiate reaction. Final ACC2 reaction concentrations consist of: 5 nM ACC2, 20 μM ATP, 20 μM acetyl-CoA, 12 mM NaHCO3, 0.01% Brij35, 2 mM DTT, 5% DMSO, test compound concentrations: 30 μM, 10 μM, 3.33 μM, 1.11 μM, 0.37 μM, 0.123 μM, 0.0411 μM, 0.0137 μM, 0.00457 μM, 0.00152 μM, and 0.00051 μM. Plates were incubated at room temperature for 60 minutes. 10 μL ADP glo reagent was added. Plates were incubated at room temperature for 40 minutes. 20 μL kinase detection reagent was added. Plates were incubated at room temperature for 40 minutes, and then read on a Perkin Elmer EnVision 2104 plate reader for luminescence as Relative Light Units (RLU).
Data for each concentration, as well as the positive and negative controls, were averaged, and the standard deviation calculated. Percent inhibition was calculated by the formula: 100×(average negative control−compound)/(average negative control−average positive control). The IC50 for each compound was calculated by fitting the data with a non-linear regression equation: Y=Bottom+(Top−Bottom)/(1+10^((Log IC50−X)*HillSlope)), where X is the log of compound concentration and Y is percent inhibition.

Sequence of hACC2 (O00763 whole entry): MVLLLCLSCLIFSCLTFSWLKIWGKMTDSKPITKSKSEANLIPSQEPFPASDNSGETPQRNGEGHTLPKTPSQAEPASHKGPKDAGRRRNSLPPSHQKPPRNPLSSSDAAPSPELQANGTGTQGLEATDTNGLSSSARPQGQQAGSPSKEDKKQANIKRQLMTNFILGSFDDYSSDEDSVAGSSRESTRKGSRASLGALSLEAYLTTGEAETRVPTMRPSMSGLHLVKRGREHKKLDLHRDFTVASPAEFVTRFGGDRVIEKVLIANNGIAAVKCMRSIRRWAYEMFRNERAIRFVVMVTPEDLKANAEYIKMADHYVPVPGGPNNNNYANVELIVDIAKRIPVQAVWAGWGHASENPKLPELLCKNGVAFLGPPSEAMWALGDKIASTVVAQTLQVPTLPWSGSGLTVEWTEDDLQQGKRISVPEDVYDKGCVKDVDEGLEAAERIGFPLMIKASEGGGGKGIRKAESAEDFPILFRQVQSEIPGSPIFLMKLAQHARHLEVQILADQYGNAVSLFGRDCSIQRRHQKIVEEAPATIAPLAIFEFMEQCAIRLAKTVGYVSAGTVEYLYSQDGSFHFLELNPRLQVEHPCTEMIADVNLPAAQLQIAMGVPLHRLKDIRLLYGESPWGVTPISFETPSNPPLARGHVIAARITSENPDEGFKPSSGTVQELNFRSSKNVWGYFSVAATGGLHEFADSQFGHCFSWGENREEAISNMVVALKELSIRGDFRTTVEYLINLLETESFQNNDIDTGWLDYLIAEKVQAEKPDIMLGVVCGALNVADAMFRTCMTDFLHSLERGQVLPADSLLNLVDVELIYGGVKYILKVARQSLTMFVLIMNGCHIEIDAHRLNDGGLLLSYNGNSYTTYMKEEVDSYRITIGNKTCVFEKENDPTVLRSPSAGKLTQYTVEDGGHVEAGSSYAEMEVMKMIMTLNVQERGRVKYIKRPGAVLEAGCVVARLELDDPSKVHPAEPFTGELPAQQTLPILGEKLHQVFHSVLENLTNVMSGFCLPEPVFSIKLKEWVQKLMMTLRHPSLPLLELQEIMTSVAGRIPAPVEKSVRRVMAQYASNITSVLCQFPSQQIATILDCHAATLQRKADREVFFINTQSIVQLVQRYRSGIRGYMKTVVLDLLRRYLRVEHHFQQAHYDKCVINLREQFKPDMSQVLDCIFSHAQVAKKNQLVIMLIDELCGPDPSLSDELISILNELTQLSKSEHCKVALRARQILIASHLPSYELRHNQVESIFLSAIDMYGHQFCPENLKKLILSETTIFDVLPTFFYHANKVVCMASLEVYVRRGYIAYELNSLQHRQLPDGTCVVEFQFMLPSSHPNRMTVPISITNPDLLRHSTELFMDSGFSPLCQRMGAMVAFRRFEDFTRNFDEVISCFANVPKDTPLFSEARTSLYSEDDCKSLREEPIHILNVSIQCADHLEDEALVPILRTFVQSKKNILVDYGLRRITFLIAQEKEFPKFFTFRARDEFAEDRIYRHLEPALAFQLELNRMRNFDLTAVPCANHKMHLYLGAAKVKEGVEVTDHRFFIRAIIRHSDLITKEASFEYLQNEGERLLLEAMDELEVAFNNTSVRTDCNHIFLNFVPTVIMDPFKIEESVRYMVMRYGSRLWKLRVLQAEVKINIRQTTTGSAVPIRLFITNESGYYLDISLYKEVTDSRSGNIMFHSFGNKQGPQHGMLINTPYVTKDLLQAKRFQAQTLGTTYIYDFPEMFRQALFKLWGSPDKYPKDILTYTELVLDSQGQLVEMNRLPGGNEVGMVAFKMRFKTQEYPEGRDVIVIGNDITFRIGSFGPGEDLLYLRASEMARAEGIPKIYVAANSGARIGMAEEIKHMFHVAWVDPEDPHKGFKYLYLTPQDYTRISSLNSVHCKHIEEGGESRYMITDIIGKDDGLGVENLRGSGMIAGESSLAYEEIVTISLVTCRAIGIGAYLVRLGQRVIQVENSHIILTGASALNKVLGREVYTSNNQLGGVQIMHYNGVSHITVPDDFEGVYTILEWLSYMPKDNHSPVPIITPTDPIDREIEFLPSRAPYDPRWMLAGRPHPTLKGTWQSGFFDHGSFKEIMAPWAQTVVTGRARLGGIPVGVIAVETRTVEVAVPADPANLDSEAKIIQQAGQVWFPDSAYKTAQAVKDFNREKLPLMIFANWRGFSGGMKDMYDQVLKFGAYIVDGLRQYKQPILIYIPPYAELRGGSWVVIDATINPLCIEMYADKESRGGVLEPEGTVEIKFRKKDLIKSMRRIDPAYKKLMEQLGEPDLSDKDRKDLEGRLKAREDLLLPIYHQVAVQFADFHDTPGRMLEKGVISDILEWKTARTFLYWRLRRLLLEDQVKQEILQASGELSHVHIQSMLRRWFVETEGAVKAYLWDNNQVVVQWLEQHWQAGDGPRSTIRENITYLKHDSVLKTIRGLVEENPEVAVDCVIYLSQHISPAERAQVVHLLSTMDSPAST

SMILES | IC90 (Septoria tritici (St); Table 4b) [µg/mL] | IC90 (Rhizoctonia solani (Rs); Table 4b) [µg/mL] | IC90 ([1]; Table 4b) [µg/mL] | IC90 (Diplodia maydis (Dm); Table 4b) [µg/mL] | IC90 ([2]; Table 4b) [µg/mL] | IC90 ([3]; Table 4b) [µg/mL] | IC90 ([4]; Table 4b) [µg/mL] | IC50 (hACC2; Table 2b (additional results)) [nM] | IC90 (Septoria tritici (St); Table 4a) [µg/mL] | IC90 (Rhizoctonia solani (Rs); Table 4a) [µg/mL] | IC90 ([1]; Table 4a) [µg/mL] | IC90 (Diplodia maydis (Dm); Table 4a) [µg/mL] | IC90 ([2]; Table 4a) [µg/mL] | IC90 ([3]; Table 4a) [µg/mL] | IC90 ([4]; Table 4a) [µg/mL] | IC50 (hACC2; Table 2a) [nM]
CCOC(=O)c1sc2c(c1C)c(=O)n([C@H](C)C(=O)NC(C)C)c(=O)n2C[C@H](OCCC#N)c1cc(F)ccc1OC [Compound I-21, ethyl 1-((R)-2-(2-cyanoethoxy)-2-(5-fluoro-2-methoxyphenyl)ethyl)-3-((R)-1-(isopropylamino)-1-oxopropan-2-yl)-5-methyl-2,4-dioxo-1,2,3,4-tetrahydrothieno[2,3-d]pyrimidine-6-carboxylate] | ≥ 50 | 0.08 (≈ 0.136 µM) | 0.4 (≈ 0.68 µM) | 0.4 (≈ 0.68 µM) | 10 (≈ 17 µM) | 0.08 (≈ 0.136 µM) | 0.4 (≈ 0.68 µM) | 0.3 to 3 | – | – | – | – | – | – | – | –
CCOC(=O)c1sc2c(c1C)c(=O)n(C(C)(C)C(=O)NC(C)C)c(=O)n2C[C@H](O)c1cc(F)ccc1OC [Compound I-19, (R)-ethyl 1-(2-(5-fluoro-2-methoxyphenyl)-2-hydroxyethyl)-3-(1-(isopropylamino)-2-methyl-1-oxopropan-2-yl)-5-methyl-2,4-dioxo-1,2,3,4-tetrahydrothieno[2,3-d]pyrimidine-6-carboxylate] | ≥ 50 | 0.4 (≈ 0.728 µM) | 0.08 (≈ 0.146 µM) | 2 (≈ 3.64 µM) | ≥ 50 | 0.08 (≈ 0.146 µM) | 2 (≈ 3.64 µM) | 3 to 10 | ≥ 50 | 0.4 (≈ 0.728 µM) | 0.08 (≈ 0.146 µM) | 2 (≈ 3.64 µM) | ≥ 50 | 0.08 (≈ 0.146 µM) | 2 (≈ 3.64 µM) | –
CCOC(=O)c1sc2c(c1C)c(=O)n([C@@H](C)C(=O)N1CCCC1)c(=O)n2C[C@H](OCCC#N)c1cc(F)ccc1OC [Compound I-23, ethyl 1-((R)-2-(2-cyanoethoxy)-2-(5-fluoro-2-methoxy-phenyl)ethyl)-5-methyl-2,4-dioxo-3-((S)-1-oxo-1-(pyrrolidin-1-yl)propan-2-yl)-1,2,3,4-tetrahydrothieno[2,3-d]pyrimidine-6-carboxylate] | ≥ 50 | 10 (≈ 16.6 µM) | ≥ 50 | 10 (≈ 16.6 µM) | ≥ 50 | 2 (≈ 3.33 µM) | ≥ 50 | 3 to 10 | – | – | – | – | – | – | – | –
CCOC(=O)c1sc2c(c1C)c(=O)n(C(C)(C)C(=O)N1CCCC1)c(=O)n2C[C@H](OCCOC)c1cc(F)ccc1OC [Compound I-13, (R)-ethyl 1-(2-(5-fluoro-2-methoxyphenyl)-2-(2-methoxy-ethoxy)ethyl)-5-methyl-3-(2-methyl-1-oxo-1-(pyrrolidin-1-yl)propan-2-yl)-2,4-dioxo-1,2,3,4-tetrahydrothieno[2,3-d]pyrimidine-6-carboxylate] | ≥ 50 | 10 (≈ 16.1 µM) | 2 (≈ 3.23 µM) | 10 (≈ 16.1 µM) | ≥ 50 | 0.4 (≈ 0.645 µM) | 2 (≈ 3.23 µM) | – | ≥ 50 | ≥ 50 | 2 (≈ 3.23 µM) | ≥ 50 | ≥ 50 | 0.4 (≈ 0.645 µM) | 2 (≈ 3.23 µM) | 10 to 40
CCOC(=O)c1sc2c(c1C)c(=O)n(C(C)(C)C(N)=O)c(=O)n2C[C@H](OCCO)c1cc(F)ccc1OC [Compound I-17, (R)-ethyl 3-(1-amino-2-methyl-1-oxopropan-2-yl)-1-(2-(5-fluoro-2-methoxyphenyl)-2-(2-hydroxyethoxy)ethyl)-5-methyl-2,4-dioxo-1,2,3,4-tetrahydro-thieno[2,3-d]pyrimidine-6-carboxylate] | ≥ 50 | 2 (≈ 3.63 µM) | ≥ 50 | ≥ 50 | ≥ 50 | 2 (≈ 3.63 µM) | ≥ 50 | – | ≥ 50 | 2 (≈ 3.63 µM) | ≥ 50 | ≥ 50 | ≥ 50 | 2 (≈ 3.63 µM) | ≥ 50 | 10 to 40
CCOC(=O)c1sc2c(c1C)c(=O)n([C@H](C)C(=O)N1CCCC1)c(=O)n2C[C@H](OCCC#N)c1cc(F)ccc1OC [Compound I-24, ethyl 1-((R)-2-(2-cyanoethoxy)-2-(5-fluoro-2-methoxy-phenyl)ethyl)-5-methyl-2,4-dioxo-3-((R)-1-oxo-1-(pyrrolidin-1-yl)propan-2-yl)-1,2,3,4-tetrahydrothieno[2,3-d]pyrimidine-6-carboxylate] | ≥ 50 | 0.08 (≈ 0.133 µM) | 2 (≈ 3.33 µM) | 2 (≈ 3.33 µM) | ≥ 50 | 0.08 (≈ 0.133 µM) | 2 (≈ 3.33 µM) | 3 to 10 | – | – | – | – | – | – | – | –
CCOC(=O)c1sc2c(c1C)c(=O)n(C(C)(C)C(=O)NC(C)C)c(=O)n2C[C@H](OC(C)C)c1ccccc1OC [Compound I-9, (R)-ethyl 1-(2-isopropoxy-2-(2-methoxyphenyl)ethyl)-3-(1-(isopropylamino)-2-methyl-1-oxopropan-2-yl)-5-methyl-2,4-dioxo-1,2,3,4-tetrahydrothieno[2,3-d]pyrimidine-6-carboxylate] | ≥ 50 | 10 (≈ 17.4 µM) | 0.4 (≈ 0.697 µM) | 0.4 (≈ 0.697 µM) | ≥ 50 | 0.08 (≈ 0.139 µM) | 2 (≈ 3.49 µM) | 10 to 40 | ≥ 50 | ≥ 50 | 0.4 (≈ 0.697 µM) | 0.4 (≈ 0.697 µM) | ≥ 50 | 0.08 (≈ 0.139 µM) | 2 (≈ 3.49 µM) | 10 to 40
CCOC(=O)c1sc2c(c1C)c(=O)n([C@@H](C)C(=O)N(C)C(C)C)c(=O)n2C[C@H](OCCC#N)c1cc(F)ccc1OC [Compound I-28, ethyl 1-((R)-2-(2-cyanoethoxy)-2-(5-fluoro-2-methoxy-phenyl)-ethyl)-3-((S)-1-(isopropyl(methyl)amino)-1-oxopropan-2-yl)-5-methyl-2,4-dioxo-1,2,3,4-tetrahydrothieno[2,3-d]pyrimidine-6-carboxylate] | 10 (≈ 16.6 µM) | 0.08 (≈ 0.133 µM) | 0.4 (≈ 0.664 µM) | 10 (≈ 16.6 µM) | ≥ 50 | 0.4 (≈ 0.664 µM) | 10 (≈ 16.6 µM) | 3 to 10 | – | – | – | – | – | – | – | –
